Test results published in ChEMBL document CHEMBL1133439, “Synthesis and biological evaluation of enantiopure thionitrites: the solid-phase synthesis and nitrosation of D-glutathione as a molecular probe” (Bioorg Med Chem Lett, 2000).

What was measured:
[1] = species: Rattus norvegicus; experiment: Effective concentration required for relaxation of rat aortic rings; type: functional; settings: Aorta
[2] = species: Rattus norvegicus; experiment: Percentage Inhibition of relaxation of phenylephrine-induced tone in rat aortic smooth muscle at ~10000 nM; type: functional, Aorta
[3] = species: Rattus norvegicus; experiment: Percentage Inhibition of relaxation of phenylephrine-induced tone in rat aortic smooth muscle at ~10 nM; type: functional, Aorta
[4] = species: Rattus norvegicus; experiment: Percentage Inhibition of relaxation of phenylephrine-induced tone in rat aortic smooth muscle at ~1000 nM; type: functional, Aorta
[5] = species: Rattus norvegicus; experiment: Percentage Inhibition of relaxation of phenylephrine-induced tone in rat aortic smooth muscle at ~100 nM; type: functional, Aorta
[6] = species: Rattus norvegicus; experiment: Percentage Inhibition of relaxation of phenylephrine-induced tone in rat aortic smooth muscle at ~500 nM; type: functional, Aorta
[7] = species: Rattus norvegicus; experiment: Percentage Inhibition of relaxation of phenylephrine-induced tone in rat aortic smooth muscle at ~600 nM; type: functional, Aorta
[8] = species: Rattus norvegicus; experiment: Percentage Inhibition of relaxation of phenylephrine-induced tone in rat aortic smooth muscle at ~5000 nM; type: functional, Aorta

SMILES | EC50 [1] [nM] | Inhibition [4] [%] | Inhibition [5] [%] | also measured
CC(=O)N[C@H](C(=O)O)C(C)(C)SN=O | 476 | – | – | –
CC(=O)N[C@@H](C(=O)O)C(C)(C)SN=O | 492 | – | – | –
N[C@@H](CSN=O)C(=O)O | 2 | – | – | –

Now from value to molecule, other results behind:

EC50 [1] [nM] | SMILES | Inhibition [4] [%] | Inhibition [5] [%] | also measured
108 | N[C@@H](CCC(=O)N[C@@H](CSN=O)C(=O)NCC(=O)O)C(=O)O [S-NITROSOGLUTATHIONE] | 90 | 50 | Inhibition [2]: 100%; Inhibition [3]: 20%; Inhibition [6]: 80%
2.1 | N[C@H](CSN=O)C(=O)O | – | – | –
290 | N[C@H](CCC(=O)N[C@H](CSN=O)C(=O)NCC(=O)O)C(=O)O | 80 | 25 | Inhibition [7]: 50%; Inhibition [8]: 100%
